Data from patent US8697694B2, “Substituted pyridine and pyrimidine derivatives and their use in treating viral infections” (priority 2008, dated 2014).
Like-named read-outs stand apart in the source and are kept apart here.

Test system: HCV replicon cells
Assay: Cell-based HCV replicon assay (replicon RNA level by real time PCR, Taqman)
Conditions: Hepatitis C virus, 72 h, HCV replicon cells, read-out: EC90 (μM) range
In short: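 HCV replicon cells treated 3 days with 10 serial 2-fold compound dilutions (top 25 μM to 1 μM; 0.5% DMSO, 10% FBS). Replicon RNA quantified by multiplex Taqman RT-PCR (NS5B amplicon, GAPDH control); EC50 and EC90 = concentrations giving ΔCT of 1 and 3.2 over baseline.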

[1] = harvested on day 3, replicon RNA by real time PCR, calculated EC90 reported as range class
[2] = replicon RNA level by real time PCR (Taqman), harvested on day 3, calculated EC90 reported as range class
[3] = harvested day 3, replicon RNA by real time PCR, reported as range class

## Cc1csc(CNc2nc(C)c(-c3nc4ccccc4s3)c(N[C@@H]3C[C@H](CO)[C@H]4OC(C)(C)O[C@H]43)n2)c1 [Example 477]
[1]
  EC90: < 0.5 µM

## CC(C)(C)CNc1nc(Cl)c(-c2nc3ccccc3s2)c(N[C@@H]2C[C@H](CO)[C@@H](O)[C@H]2O)n1 [Example 436]
[1]
  EC90: < 0.5 µM

## Cc1nc(NCC(F)(F)F)nc(N[C@@H]2C[C@H](CO)[C@@H](O)[C@H]2O)c1-c1nc2cnccc2s1 [Example 532]
[2]
  EC90: < 0.5 µM

## Cc1cccc(Nc2nc(C)c(-c3nc4ccccc4s3)c(N[C@@H]3C[C@H](CO)[C@@H](O)[C@H]3O)n2)c1 [Example 1046]
[2]
  EC90: 0.5 to 5 µM

## COc1nc(C)c(-c2nc3ccccc3s2)c(N[C@@H]2C[C@H](CO)[C@@H](O)[C@H]2O)n1 [Example 1907]
Replicon RNA level by real time PCR, harvested day 3
  EC90: 0.5 to 5 µM

## Nc1nc(N[C@@H]2C[C@H](CO)[C@@H](O)[C@H]2O)c(-c2ncccn2)c(-c2ncccn2)n1 [Example 160]
[3]
  EC90: > 5 µM

## CCNc1nc(Cl)c(-c2nc3ccccc3s2)c(N[C@@H]2C[C@H](CO)[C@@H](O)[C@H]2O)n1 [Example 412]
[3]
  EC90: < 0.5 µM
